Test results: patent US10118918B2, “PRMT5 inhibitors and uses thereof” (Epizyme, Inc., priority 2012, dated 2018)
Like-named read-outs stand apart in the source and are kept apart here.

Assays:
[1] = molecular target: PRMT5/MEP50 (Homo sapiens (Human), UniProt O14744); test: PRMT5 Biochemical Assay (PRMT5/MEP50 enzyme assay on peptide substrate, 3H-SAM Flashplate); conditions: PRMT5/MEP50 4 nM, 3H-SAM 75 nM, peptide 40 nM
Text: S-adenosylmethionine (SAM), S-adenosylhomocysteine (SAH), bicine, KCl, Tween20, dimethylsulfoxide (DMSO), bovine skin gelatin (BSG), and Tris(2-carboxyethyl)phosphine hydrochloride solution (TCEP) were purchased from Sigma-Aldrich at the highest level of purity possible. ^3H-SAM was purchase from American Radiolabeled Chemicals with a specific activity of 80 Ci/mmol. 384-well streptavidin Flashplates were purchased from PerkinElmer.
Peptide representative of human histone H4 residues 1-15 was synthesized with a C-terminal linker-affinity tag motif and a C-terminal amide cap by 21st Century Biochemicals. The peptide was high high-performance liquid chromatography (HPLC) purified to greater than 95% purity and confirmed by liquid chromatography mass spectrometry (LC-MS). The sequence was Ac-[…][K-Biot]-amide (SEQ ID NO.: 3).
Full-length human PRMT5 (NM_006109.3) transcript variant 1 clone was amplified from a fetal brain cDNA library, incorporating flanking 5′ sequence encoding a FLAG tag ([…]) (SEQ ID NO.: 4) fused directly to Ala 2 of PRMT5. Full-length human MEP50 (NM_024102) clone was amplified from a human testis cDNA library incorporating a 5′ sequence encoding a 6-histidine tag (MHHHHHH) (SEQ ID NO.: 5) fused directly to Arg 2 of MEP50. The amplified genes were sublconed into pENTR/D/TEV (Life Technologies) and subsequently transferred by Gateway™ attL x attR recombination to pDEST8 baculvirus expression vector (Life Technologies).
Recombinant baculovirus and Baculovirus-Infected Insect Cells (BIIC) were generated according to Bac-to-Bac kit instructions (Life Technologies) and Wasilko, 2006, respectively. Protein over-expression was accomplished by infecting exponentially growing Spodoptera frugiperda (SF9) cell culture at 1.2×10^6 cell/ml with a 5000 fold dilution of BIIC stock. Infections were carried out at 27° C. for 72 hours, harvested by centrifugation, and stored at −80° C. for purification.
Flag-PRMT5/6His-MeP50 was eluted with 300 mM Imidazole in the same buffer. The purity of recovered protein was 87%. Reference: Wasilko, D. J. and S. E. Lee: “TIPS: titerless infected-cells preservation and scale-up” Bioprocess J., 5 (2006), pp. 29-32.
General Procedure for PRMT5/MEP50 Enzyme Assays on Peptide Substrates.
The assays were all performed in a buffer consisting of 20 mM Bicine (pH=7.6), 1 mM TCEP, 0.005% BSG, and 0.002% Tween20, prepared on the day of use. Compounds in 100% DMSO (1 ul) were spotted into a polypropylene 384-well V-bottom plates (Greiner) using a Platemate Plus outfitted with a 384-channel head (Thermo Scientific). DMSO (1 ul) was added to Columns 11, 12, 23, 24, rows A-H for the maximum signal control and 1 ul of SAH, a known product and inhibitor of PRMT5/MEP50, was added to columns 11, 12, 23, 24, rows I-P for the minimum signal control. A cocktail (40 ul) containing the PRMT5/MEP50 enzyme and the peptide was added by Multidrop Combi (Thermo-Fisher). The compounds were allowed to incubate with PRMT5/MEP50 for 30 min at 25 degrees Celsius, then a cocktail (10 ul) containing ^3H-SAM was added to initiate the reaction (final volume=51 ul). The final concentrations of the components were as follows: PRMT5/MEP50 was 4 nM, ^3H-SAM was 75 nM, peptide was 40 nM, SAH in the minimum signal control wells was 100 uM, and the DMSO concentration was 1%. The assays were stopped by the addition of non-radioactive SAM (10 ul) to a final concentration of 600 uM, which dilutes the ^3H-SAM to a level where its incorporation into the peptide substrate is no longer detectable. 50 ul of the reaction in the 384-well polypropylene plate was then transferred to a 384-well Flashplate and the biotinylated peptides were allowed to bind to the streptavidin surface for at least 1 hour before being washed three times with 0.1% Tween20 in a Biotek ELx405 plate washer. […]

[2] = tested on: symmetric di-methyl arginine in Z-138 cells; test: Z-138 Methylation Assay (In Cell Western for symmetric di-methyl arginine and DNA content); assay type: cell-based; conditions: 96 hours incubation, read-out: ICW EC50
Text: [formula] Where top and bottom are the normally allowed to float, but may be fixed at 100 or 0 respectively in a 3-parameter fit. The Hill Coefficient normally allowed to float but may also be fixed at 1 in a 3-parameter fit. Y is the % inhibition and X is the compound concentration. Z-138 Methylation Assay
Z-138 suspension cells were purchased from ATCC (American Type Culture Collection, Manassas, Va.). RPMI/Glutamax medium, penicillin-streptomycin, heat inactivated fetal bovine serum, and D-PBS were purchased from Life Technologies, Grand Island, N.Y., USA. Odyssey blocking buffer, 800CW goat anti-rabbit IgG (H+L) antibody, and Licor Odyssey infrared scanner were purchased from Licor Biosciences, Lincoln, Nebr., USA. Symmetric di-methyl arginine antibody was purchased from EMD Millipore, Billerica, Mass., USA. 16% Paraformaldehyde was purchased from Electron Microscopy Sciences, Hatfield, Pa., USA.
Z-138 suspension cells were maintained in growth medium (RPMI 1640 supplemented with 10% v/v heat inactivated fetal bovine serum and 100 units/mL penicillin-streptomycin) and cultured at 37° C. under 5% CO2.
Cell Treatment, in Cell Western (ICW) for Detection of Symmetric Di-Methyl Arginine and DNA Content.
Z-138 cells were seeded in assay medium at a concentration of 50,000 cells per mL to a 384-well cell culture plate with 50 μL per well. Compound (100 nL) from 384 well source plates was added directly to 384 well cell plate. Plates were incubated at 37° C., 5% CO2 for 96 hours. After four days of incubation, 40 μL of cells from incubated plates were added to poly-D-lysine coated 384 well culture plates (BD Biosciences 356697). Plates were incubated at room temperature for 30 minutes then incubated at 37° C., 5% CO2 for 5 hours. After the incubation, 40 μL per well of 8% paraformaldehyde in PBS (16% paraformaldahyde was diluted to 8% in PBS) was added to each plate and incubated for 30 minutes. Plates were transferred to a Biotek 405 plate washer and washed 5 times with 100 μL per well of wash buffer (IX PBS with 0.1% Triton X-100 (v/v)). Next 30 μL per well of Odyssey blocking buffer were added to each plate and incubated 1 hour at room temperature. Blocking buffer was removed and 20 μL per well of primary antibody was added (symmetric di-methyl arginine diluted 1:100 in Odyssey buffer with 0.1% Tween 20 (v/v)) and plates were incubated overnight (16 hours) at 4° C. Plates were washed 5 times with 100 μL per well of wash buffer. Next 20 μL per well of secondary antibody was added (1:200 800CW goat anti-rabbit IgG (H+L) antibody, 1:1000 DRAQ5 (Biostatus limited) in Odyssey buffer with 0.1% Tween 20 (v/v)) and incubated for 1 hour at room temperature. The plates were washed 5 times with 100 μL per well wash buffer then 1 time with 100 μL per well of water. Plates were allowed to dry at room temperature then imaged on the Licor Odyssey machine which measures integrated intensity at 700 nm and 800 nm wavelengths. Both 700 and 800 channels were scanned.
First, the ratio for each well was determined by:
Each plate included fourteen control wells of DMSO only treatment (minimum inhibition) as well as fourteen control wells for maximum inhibition treated with 3 μM of a reference compound (Background wells). The average of the ratio values for each control type was calculated and used to determine the percent inhibition for each test well in the plate. Reference compound was serially diluted three-fold in DMSO for a total of nine test concentrations, beginning at 3 μM. Percent inhibition was determined and IC50 curves were generated using triplicate wells per concentration of compound. […]

[3] = tested on: Z-138 cells; test: Z-138 Proliferation Assay (Cell Titer Glo); assay type: cell-based; conditions: Homo sapiens, 120 h, 5 days incubation
Text: [formula] Z-138 Proliferation Assay
Z-138 suspension cells were purchased from ATCC (American Type Culture Collection, Manassas, Va.). RPMI/Glutamax medium, penicillin-streptomycin, heat inactivated fetal bovine serum were purchased from Life Technologies, Grand Island, N.Y., USA. V-bottom polypropylene 384-well plates were purchased from Greiner Bio-One, Monroe, N.C., USA. Cell culture 384-well white opaque plates were purchased from Perkin Elmer, Waltham, Mass., USA. Cell-Titer Glo® was purchased from Promega Corporation, Madison, Wis., USA. SpectraMax M5 plate reader was purchased from Molecular Devices LLC, Sunnyvale, Calif., USA.
Z-138 suspension cells were maintained in growth medium (RPMI 1640 supplemented with 10% v/v heat inactivated fetal bovine serum and cultured at 37° C. under 5% CO2. Under assay conditions, cells were incubated in assay medium (RPMI 1640 supplemented with 10% v/v heat inactivated fetal bovine serum and 100 units/mL penicillin-streptomycin) at 37° C. under 5% CO2.
For the assessment of the effect of compounds on the proliferation of the Z-138 cell line, exponentially growing cells were plated in 384-well white opaque plates at a density of 10,000 cells/ml in a final volume of 50 μl of assay medium. A compound source plate was prepared by performing triplicate nine-point 3-fold serial dilutions in DMSO, beginning at 10 mM (final top concentration of compound in the assay was 20 μM and the DMSO was 0.2%). A 100 nL aliquot from the compound stock plate was added to its respective well in the cell plate. […] After addition of compounds, assay plates were incubated for 5 days at 37° C., 5% CO2, relative humidity >90%.
Cell viability was measured by quantitation of ATP present in the cell cultures, adding 35 μl of Cell Titer Glo® reagent to the cell plates. Luminescence was read in the SpectraMax M5 microplate reader. The concentration of compound inhibiting cell viability by 50% was determined using a 4-parametric fit of the normalized dose response curves.

Sequence of PRMT5/MEP50 (O14744 other isoform, or with tags, fused parts or gaps): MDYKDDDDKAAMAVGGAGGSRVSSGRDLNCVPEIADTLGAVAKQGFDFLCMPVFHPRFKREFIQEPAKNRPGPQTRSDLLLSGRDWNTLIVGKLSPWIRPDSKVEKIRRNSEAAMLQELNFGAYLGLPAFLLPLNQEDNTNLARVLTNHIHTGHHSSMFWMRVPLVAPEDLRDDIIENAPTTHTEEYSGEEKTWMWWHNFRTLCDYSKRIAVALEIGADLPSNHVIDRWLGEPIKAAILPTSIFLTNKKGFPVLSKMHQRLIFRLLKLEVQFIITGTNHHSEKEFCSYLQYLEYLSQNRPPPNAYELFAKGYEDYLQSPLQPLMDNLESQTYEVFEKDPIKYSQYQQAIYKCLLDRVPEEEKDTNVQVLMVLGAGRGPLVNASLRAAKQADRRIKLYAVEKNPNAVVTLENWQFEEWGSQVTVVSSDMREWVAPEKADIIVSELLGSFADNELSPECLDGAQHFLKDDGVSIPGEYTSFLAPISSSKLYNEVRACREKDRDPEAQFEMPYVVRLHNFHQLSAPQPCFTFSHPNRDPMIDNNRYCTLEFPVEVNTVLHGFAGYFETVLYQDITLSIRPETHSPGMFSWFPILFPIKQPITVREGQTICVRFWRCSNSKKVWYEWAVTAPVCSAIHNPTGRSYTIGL
Sequence of PRMT5/MEP50 (Q9BQA1 other isoform, or with tags, fused parts or gaps partner): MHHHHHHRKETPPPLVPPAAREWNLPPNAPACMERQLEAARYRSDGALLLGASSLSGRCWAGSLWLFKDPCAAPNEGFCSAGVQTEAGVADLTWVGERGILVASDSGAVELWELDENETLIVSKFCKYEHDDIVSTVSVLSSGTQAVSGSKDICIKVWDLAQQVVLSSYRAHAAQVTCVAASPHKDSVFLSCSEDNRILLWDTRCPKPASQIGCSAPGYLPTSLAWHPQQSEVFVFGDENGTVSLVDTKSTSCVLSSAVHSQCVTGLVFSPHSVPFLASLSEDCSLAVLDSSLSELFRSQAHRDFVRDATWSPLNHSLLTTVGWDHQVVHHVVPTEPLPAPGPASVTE

2-(2-(1H-pyrazol-3-yl)phenoxy)-N-(2-hydroxy-3-(isoindolin-2-yl)propyl)acetamide [compound 8]
IC50 [1]: 101 to 1000 nM
EC50 [2]: 101 to 1000 nM

O=C(COc1cccc2cccnc12)NC[C@H](O)CN1Cc2ccccc2C1 [compound 4]
EC50 ([2]; Homo sapiens): 101 to 1000 nM
EC50 [3]: 1000 to 10000 nM

Cn1cnc2ccc(-c3cccc(OCC(O)CN4Cc5ccccc5C4)c3)cc21 (centres unmarked) [compound 9, 1-(isoindolin-2-yl)-3-(3-(1-methyl-1H-benzo[d]imidazol-6-yl)phenoxy)propan-2-ol]
IC50 [1]: 1000 to 10000 nM

CC(C)(C)OC(=O)Nc1cccc(C(=O)NCC(O)CN2Cc3ccccc3C2)c1 (centres unmarked) [compound 11, tert-butyl (3-((2-hydroxy-3-(isoindolin-2-yl)propyl)carbamoyl)phenyl)carbamate]
IC50 [1]: 101 to 1000 nM
EC50 ([2]; Homo sapiens): 1000 to 10000 nM

CS(=O)(=O)c1ccccc1OCC(=O)NCC(O)CN1Cc2ccccc2C1 (centres unmarked) [compound 12, N-(2-hydroxy-3-(isoindolin-2-yl)propyl)-2-(2-(methylsulfonyl)phenoxy)acetamide]
IC50 [1]: 101 to 1000 nM
EC50 ([2]; Homo sapiens): 101 to 1000 nM

O=C(COc1cccc2cccnc12)NC[C@@H](O)CN1Cc2ccccc2C1 [compound 16, (R)—N-(2-hydroxy-3-(isoindolin-2-yl)propyl)-2-(quinolin-8-yloxy)acetamide]
IC50 [1]: 1000 to 10000 nM

COc1ccc(Cn2cnc3ccc(-c4ccc(OCC(O)CN5Cc6ccccc6C5)cc4)cc32)cc1 (centres unmarked) [compound 18]
IC50 [1]: 1000 to 10000 nM

OC(COc1cccc(CNC2CCCC2)c1)CN1Cc2ccccc2C1 (centres unmarked) [compound 20, 1-(3-((cyclopentylamino)methyl)phenoxy)-3-(isoindolin-2-yl)propan-2-ol]
IC50 [1]: 1000 to 10000 nM
EC50 [3]: 10000 to 50000 nM

CN(C)S(=O)(=O)c1ccccc1OCC(=O)NC[C@@H](O)CN1Cc2ccccc2C1 [compound 21]
EC50 ([2]; Homo sapiens): 101 to 1000 nM
EC50 [3]: > 20000 nM

CN1CCOc2cccc(OCC(=O)NC[C@@H](O)CN3Cc4ccccc4C3)c21 [compound 22]
EC50 ([2]; Homo sapiens): 1000 to 10000 nM

CN(C)S(=O)(=O)c1ccccc1OCC(=O)NC[C@H](O)CN1Cc2ccccc2C1 [compound 23]
EC50 ([2]; Homo sapiens): < 100 nM
EC50 [3]: 101 to 1000 nM

O=C(NC[C@@H](O)CN1Cc2ccccc2C1)c1cccc(NC2CCOCC2)c1 [compound 24]
IC50 [1]: < 100 nM

CN1CCOc2cccc(OCC(=O)NC[C@H](O)CN3Cc4ccccc4C3)c21 [compound 26]
EC50 ([2]; Homo sapiens): 101 to 1000 nM
EC50 [3]: > 20000 nM

O=C(NC[C@H](O)CN1Cc2ccccc2C1)c1cncc(OC2CCOCC2)c1 [compound 31]
EC50 ([2]; Homo sapiens): 1000 to 10000 nM

CC(=O)N1CCC(Nc2cc(C(=O)NC[C@H](O)CN3Cc4ccccc4C3)ncn2)CC1 [compound 39]
IC50 [1]: < 100 nM
EC50 [3]: 101 to 1000 nM

CC(=O)N1CC(Nc2cc(C(=O)NC[C@H](O)CN3CCc4ccccc43)ncn2)C1 [compound 41]
IC50 [1]: 1000 to 10000 nM
EC50 [3]: 10000 to 50000 nM

CC(=O)N1CCC(Nc2cc(C(=O)NC[C@H](O)CN3CCCCc4ccccc43)ccn2)CC1 [compound 51]
IC50 [1]: > 10000 nM

O=C(NCCCN1Cc2ccccc2C1)c1cc(NC2COC2)ncn1 [compound 52]
IC50 [1]: > 10000 nM

CC(=O)N1CCC(Nc2cc(C(=O)NC[C@H](O)CN3CCCc4ccccc4C3)ccn2)CC1 [compound 53]
IC50 [1]: 1000 to 10000 nM
EC50 ([2]; Homo sapiens): > 1000 nM

N-(2-hydroxy-3-(isoindolin-2-yl)propyl)-3-((tetrahydro-2H-pyran-4-yl)amino)benzamide [compound 6]
IC50 [1]: > 10000 nM

tert-butyl (3-((2-hydroxy-3-(isoindolin-2-yl)propyl)carbamoyl)phenyl)carbamate [compound 2]
IC50 [1]: 1000 to 10000 nM
